Assay: On-resin head-to-side-chain macrolactonisation with cyclative cleavage: free Tyr phenol attacks the C-terminal N-acyl-MeNbz (N-acyl-N'-methylurea) resin, 10% DIEA, giving the Tyr phenyl ester
Conditions: the molecule shown is the open-chain precursor, DCM (models 1-4, rt; 1 and 4 retried in DMF at 60 C), DMF (BPC822, 60 C), scale: 1=cyclic product detected, 0=not detected

Work on `CCCCCC(=O)N[C@@H](Cc1ccc(O)cc1)C(=O)N[C@@H](C)C(=O)N[C@@H](CC(C)C)C(=O)N1CCC[C@H]1C(=O)N[C@@H](Cc1ccccc1)C(=O)N[C@H](C(=O)N[C@H](C(=O)NCC(=O)n1c(=O)n(C)c2ccc(C(=O)NCC(N)=O)cc21)C(C)C)[C@@H](C)CC` yielded a ring closure, product found (29-membered ring) of 1.

`CC[C@H](C)[C@H](NC(=O)[C@@H](Cc1ccc(OC(C)(C)C)cc1)NC(=O)[C@H](CCC(=O)NC(c1ccccc1)(c1ccccc1)c1ccccc1)NC(=O)[C@@H]1CCCN1C(=O)[C@@H](NC(=O)[C@H](CCC(=O)OC(C)(C)C)NC(=O)[C@@H](NC(=O)[C@H](Cc1ccc(O)cc1)NC(=O)OC(C)(C)C)[C@@H](C)OC(C)(C)C)C(C)C)C(=O)n1c(=O)n(C)c2ccc(C(=O)NCC(N)=O)cc21` gave a ring closure, product found (29-membered ring, 0.5 h) of 1.

`CCCCCC(=O)N[C@@H](Cc1ccc(O)cc1)C(=O)NCC(=O)N[C@@H](Cc1ccccc1)C(=O)N[C@@H](C)C(=O)N1CCC[C@H]1C(=O)N[C@@H](C)C(=O)N[C@H](C(=O)N[C@H](C(=O)NCC(=O)n1c(=O)n(C)c2ccc(C(=O)NCC(N)=O)cc21)C(C)C)[C@@H](C)CC` showed a ring closure, product found (32-membered ring) of 0.

Work on `CCCCCC(=O)N[C@@H](Cc1ccc(O)cc1)C(=O)N1CCC[C@H]1C(=O)N[C@@H](Cc1ccccc1)C(=O)N[C@H](C(=O)N[C@H](C(=O)NCC(=O)n1c(=O)n(C)c2ccc(C(=O)NCC(N)=O)cc21)C(C)C)[C@@H](C)CC` yielded a ring closure, product found (23-membered ring) of 0.

In the case of `CCCCCC(=O)N[C@@H](Cc1ccc(O)cc1)C(=O)N[C@@H](CC(C)C)C(=O)N1CCC[C@H]1C(=O)N[C@@H](Cc1ccccc1)C(=O)N[C@H](C(=O)N[C@H](C(=O)NCC(=O)n1c(=O)n(C)c2ccc(C(=O)NCC(N)=O)cc21)C(C)C)[C@@H](C)CC`, the ring closure, product found (26-membered ring) is reported as 1.
